The text below walks through data of PMC9262584 (2022).

Bounds are passed on as bounds.

What all share (experiment): ITC
Conditions in all cases: 50 mM KCl, 5 mM MgCl2 (RNA wash buffer); 50 mM Bis-Tris pH 6.1; individual ITC conditions in SI Figures S11/S12

Assay [1] deals with pilM^102 (RNA, riboswitch) GAUAUCGACAAUACUAAACCAUCCGCGAGGGUGGGACGGAAAGCCUACAGGGUCUCUCUGAGACAGCCGGGAUGCCGAAAUAUCACAAUUCGUGAUGCUCGG
The subject of assay [2] is pilM^79 (RNA, riboswitch) GAUAUCGACAAUACUAAACCAUCCGCGAGGGUGGGACGGAAAGCCUACAGGGUCUCUCUGAGACAGCCGGGAUGCCGAA
Assay [3] has as its system pilM^103 (RNA, riboswitch) GAUAUCGACAAUACUAAACCAUCCGCGAGGGUGGGACGGAAAGCCUACAGGGUCUCUCUGAGACAGCCGGGAUGCCGAAAUAUCACAAUUCGUGAUGCUCGGU
Assay [4] has as its system pilM^99 (RNA, riboswitch) GAUAUCGACAAUACUAAACCAUCCGCGAGGGUGGGACGGAAAGCCUACAGGGUCUCUCUGAGACAGCCGGGAUGCCGAAAUAUCACAAUUCGUGAUGCU
In assay [5] the test system is pilM^14-75 (RNA, riboswitch) GCUAAACCAUCCGCGAGGGUGGGACGGAAAGCCUACAGGGUCUCUCUGAGACAGCCGGGAUGC
The subject of assay [6] is pilM^80 (RNA, riboswitch) GAUAUCGACAAUACUAAACCAUCCGCGAGGGUGGGACGGAAAGCCUACAGGGUCUCUCUGAGACAGCCGGGAUGCCGAAA
The test system of assay [7] is pilM^97 (RNA, riboswitch) GAUAUCGACAAUACUAAACCAUCCGCGAGGGUGGGACGGAAAGCCUACAGGGUCUCUCUGAGACAGCCGGGAUGCCGAAAUAUCACAAUUCGUGAUG
For assay [8], the system named is pilM^83 (RNA, riboswitch) GAUAUCGACAAUACUAAACCAUCCGCGAGGGUGGGACGGAAAGCCUACAGGGUCUCUCUGAGACAGCCGGGAUGCCGAAAUAU
The test system of assay [9] is pilM^95 (RNA, riboswitch) GAUAUCGACAAUACUAAACCAUCCGCGAGGGUGGGACGGAAAGCCUACAGGGUCUCUCUGAGACAGCCGGGAUGCCGAAAUAUCACAAUUCGUGA
In assay [10] the test system is pilM^106 (RNA, riboswitch) GAUAUCGACAAUACUAAACCAUCCGCGAGGGUGGGACGGAAAGCCUACAGGGUCUCUCUGAGACAGCCGGGAUGCCGAAAUAUCACAAUUCGUGAUGCUCGGUCCC
In assay [11] the test system is pilM^88 (RNA, riboswitch) GAUAUCGACAAUACUAAACCAUCCGCGAGGGUGGGACGGAAAGCCUACAGGGUCUCUCUGAGACAGCCGGGAUGCCGAAAUAUCACAA
The test system of assay [12] is pilM^100 (RNA, riboswitch) GAUAUCGACAAUACUAAACCAUCCGCGAGGGUGGGACGGAAAGCCUACAGGGUCUCUCUGAGACAGCCGGGAUGCCGAAAUAUCACAAUUCGUGAUGCUC
The subject of assay [13] is pilM^96 (RNA, riboswitch) GAUAUCGACAAUACUAAACCAUCCGCGAGGGUGGGACGGAAAGCCUACAGGGUCUCUCUGAGACAGCCGGGAUGCCGAAAUAUCACAAUUCGUGAU
Assay [14] concerns pilM^91 (RNA, riboswitch) GAUAUCGACAAUACUAAACCAUCCGCGAGGGUGGGACGGAAAGCCUACAGGGUCUCUCUGAGACAGCCGGGAUGCCGAAAUAUCACAAUUC
For assay [15], the system named is pilM^84 (RNA, riboswitch) GAUAUCGACAAUACUAAACCAUCCGCGAGGGUGGGACGGAAAGCCUACAGGGUCUCUCUGAGACAGCCGGGAUGCCGAAAUAUC
The subject of assay [16] is pilM^105 (RNA, riboswitch) GAUAUCGACAAUACUAAACCAUCCGCGAGGGUGGGACGGAAAGCCUACAGGGUCUCUCUGAGACAGCCGGGAUGCCGAAAUAUCACAAUUCGUGAUGCUCGGUCC
The subject of assay [17] is pilM^77 (RNA, riboswitch) GAUAUCGACAAUACUAAACCAUCCGCGAGGGUGGGACGGAAAGCCUACAGGGUCUCUCUGAGACAGCCGGGAUGCCG
The test system of assay [18] is pilM^75 (RNA, riboswitch) GAUAUCGACAAUACUAAACCAUCCGCGAGGGUGGGACGGAAAGCCUACAGGGUCUCUCUGAGACAGCCGGGAUGC
The subject of assay [19] is pilM^82 (RNA, riboswitch) GAUAUCGACAAUACUAAACCAUCCGCGAGGGUGGGACGGAAAGCCUACAGGGUCUCUCUGAGACAGCCGGGAUGCCGAAAUA
The test system of assay [20] is pilM^93 (RNA, riboswitch) GAUAUCGACAAUACUAAACCAUCCGCGAGGGUGGGACGGAAAGCCUACAGGGUCUCUCUGAGACAGCCGGGAUGCCGAAAUAUCACAAUUCGU
The test system of assay [21] is pilM^109 (RNA, riboswitch) GAUAUCGACAAUACUAAACCAUCCGCGAGGGUGGGACGGAAAGCCUACAGGGUCUCUCUGAGACAGCCGGGAUGCCGAAAUAUCACAAUUCGUGAUGCUCGGUCCCGGC
Assay [22] deals with pilM^101 (RNA, riboswitch) GAUAUCGACAAUACUAAACCAUCCGCGAGGGUGGGACGGAAAGCCUACAGGGUCUCUCUGAGACAGCCGGGAUGCCGAAAUAUCACAAUUCGUGAUGCUCG

Usually KD stands for the equilibrium constant for the complex coming apart. Regarding `Nc1nc2c(ncn2[C@@H]2O[C@@H]3COP(=O)(O)O[C@H]4[C@@H](O)[C@H](n5cnc6c(N)ncnc65)O[C@@H]4COP(=O)(O)O[C@H]3[C@H]2O)c(=O)[nH]1`, the KD was > >100 μM in assay [1]; 0.017 ± 0.011 mM in assay [2]; > >100 μM in assay [3]; 0.00025 ± 4e-05 mM in [4]; 0.012 ± 0.005 mM in [5]; 0.0085 ± 0.0014 mM in assay [6]. In addition, the equilibrium dissociation constant (KD) in [7] was 0.0016 ± 0.0007 mM; in assay [8], 0.00167 ± 9e-05 mM; in [9], 0.0016 ± 0.0006 mM; in assay [10], > >100 μM; in assay [11] it was 0.00025 ± 4e-05 mM; in assay [12], 0.0005 ± 0.0003 mM. Also, the KD is 0.0029 ± 0.0015 mM in assay [13]; 0.00032 ± 5e-05 mM in assay [14]; 0.00044 ± 6e-05 mM in assay [15]; > >100 μM in assay [16]; 0.019 ± 0.019 mM in assay [17]; > >100 μM in assay [18]. Besides, the equilibrium dissociation constant (KD) in [19] was 0.00212 ± 0.00017 mM; in assay [20], 0.00038 ± 6e-05 mM; in assay [21] it was > >100 μM; in [22], 0.0013 ± 0.0005 mM.
